The values below come from patent US10815222B2, “Compounds for use in the treatment of kinetoplastid infection” (C.N.C.C.S. S.c.a.r.l. COLLEZIONE NAZIONALE DEI COMPOSTI …, priority 2016, dated 2020).

Broadly, the EC50 is the concentration giving half of the maximal effect.

This experiment relates to Bloodstream form of Trypanosoma brucei, strain Lister 427. Description: Trypanosoma brucei growth inhibition assay (CellTiter-Glo, 24 h). It counts as cell-based. The settings on record: Trypanosoma brucei; T. Brucei Growth Inibition Assay, class symbols; read-out: T. Brucei GI EC50. The method, boiled down: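 Bloodstream-form T. brucei Lister 427, 1500 parasites per well in supplemented IMDM with 10% FBS, were exposed to compound (DMSO ≤0.25% final) for 24 h at 37 °C. Viability was measured by CellTiter-Glo luminescence.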
(In general: Cellular ATP, detected with luciferase, serves as a proxy for viable cell number.)
Take `COc1ccc2nc(C(F)(F)F)n(CC(=O)N3CC[C@H](NCc4ccn(C)n4)C[C@H]3c3ncc(-c4cc5ccccc5nc4OC)[nH]3)c2c1` [2-(6-methoxy-2-(trifluoromethyl)-1H-benzo[d]imidazol-1-yl)-1-((2S,4S)-2-(5-(2-methoxyquinolin-3-yl)-1H-imidazol-2-yl)-4-(((1-methyl-1H-pyrazol-3-yl)methyl)amino)piperidin-1-yl)ethan-1-one]: the EC50 is below 100 nM.

Take `COc1ccc2nc(C(F)(F)F)n(CC(=O)N3CC[C@H](N[C@@H]4CCOC4)C[C@H]3c3ncc(-c4cc5ccccc5nc4OC)[nH]3)c2c1` [2-(6-methoxy-2-(trifluoromethyl)-1H-benzo[d]imidazol-1-yl)-1-((2S,4S)-2-(5-(2-methoxyquinolin-3-yl)-1H-imidazol-2-yl)-4-(((R)-tetrahydrofuran-3-yl)amino)piperidin-1-yl)ethan-1-one]: the EC50 is below 100 nM.

With `COc1ccc2nc(C(F)(F)F)n(CC(=O)N3CC[C@H](N[C@H]4CCOC4)C[C@H]3c3ncc(-c4cc5ccccc5nc4OC)[nH]3)c2c1` [2-(6-methoxy-2-(trifluoromethyl)-1H-benzo[d]imidazol-1-yl)-1-((2S,4S)-2-(5-(2-methoxyquinolin-3-yl)-1H-imidazol-2-yl)-4-(((S)-tetrahydrofuran-3-yl)amino)piperidin-1-yl)ethan-1-one], the concentration for a half-maximal effect (EC50) was below 100 nM.

In the case of `COc1ccc2nc(C(F)(F)F)n(CC(=O)N3CC[C@H](NCC4CCOC4)C[C@H]3c3ncc(-c4cc5ccccc5nc4OC)[nH]3)c2c1` (stereo partly drawn) [2-(6-methoxy-2-(trifluoromethyl)-1H-benzo[d]imidazol-1-yl)-1-((2S,4S)-2-(5-(2-methoxyquinolin-3-yl)-1H-imidazol-2-yl)-4-(((tetrahydrofuran-3-yl)methyl)amino)piperidin-1-yl)ethan-1-one], the EC50 was below 100 nM.

For `COc1ccc2nc(C(F)(F)F)n(CC(=O)N3CC[C@H](NCC4COC4)C[C@H]3c3ncc(-c4cc5ccccc5nc4OC)[nH]3)c2c1` [2-(6-methoxy-2-(trifluoromethyl)-1H-benzo[d]imidazol-1-yl)-1-((2S,4S)-2-(5-(2-methoxyquinolin-3-yl)-1H-imidazol-2-yl)-4-((oxetan-3-ylmethyl)amino)piperidin-1-yl)ethan-1-one], the EC50 is below 100 nM.

For `COc1ccc2nc(C(F)(F)F)n(CC(=O)N3CC[C@H](NCc4cnccn4)C[C@H]3c3ncc(-c4cc5ccccc5nc4OC)[nH]3)c2c1` [2-(6-methoxy-2-(trifluoromethyl)-1H-benzo[d]imidazol-1-yl)-1-((2S,4S)-2-(5-(2-methoxyquinolin-3-yl)-1H-imidazol-2-yl)-4-((pyrazin-2-ylmethyl)amino)piperidin-1-yl)ethan-1-one], the EC50 was below 100 nM.

Turning to `COc1ccc2nc(C(F)(F)F)n(CC(=O)N3CC[C@H](NCc4ccccn4)C[C@H]3c3ncc(-c4cc5ccccc5nc4OC)[nH]3)c2c1` [2-(6-methoxy-2-(trifluoromethyl)-1H-benzo[d]imidazol-1-yl)-1-((2S,4S)-2-(5-(2-methoxyquinolin-3-yl)-1H-imidazol-2-yl)-4-((pyridin-2-ylmethyl)amino)piperidin-1-yl)ethan-1-one], the EC50 was below 100 nM.

As to `COc1ccc2nc(C(F)(F)F)n(CC(=O)N3CC[C@H](NC4CCOC4)C[C@H]3c3ncc(-c4cc5ccccc5nc4OC)[nH]3)c2c1` (stereo partly drawn) [2-(6-methoxy-2-(trifluoromethyl)-1H-benzo[d]imidazol-1-yl)-1-((2S,4S)-2-(5-(2-methoxyquinolin-3-yl)-1H-imidazol-2-yl)-4-((tetrahydrofuran-3-yl)amino)piperidin-1-yl)ethan-1-one], the 50% effective concentration (EC50) is below 100 nM.

On to `COc1ccc2nc(C(F)(F)F)n(CC(=O)N3CC[C@H](NCc4nccs4)C[C@H]3c3ncc(-c4cc5ccccc5nc4OC)[nH]3)c2c1` [2-(6-methoxy-2-(trifluoromethyl)-1H-benzo[d]imidazol-1-yl)-1-((2S,4S)-2-(5-(2-methoxyquinolin-3-yl)-1H-imidazol-2-yl)-4-((thiazol-2-ylmethyl)amino)piperidin-1-yl)ethan-1-one], for which the EC50 was below 100 nM.

Regarding `COc1ccc2nc(C(F)(F)F)n(CC(=O)N3CC[C@H](N(C)C4CCOC4)C[C@H]3c3ncc(-c4cc5ccccc5nc4OC)[nH]3)c2c1` (stereo partly drawn) [2-(6-methoxy-2-(trifluoromethyl)-1H-benzo[d]imidazol-1-yl)-1-((2S,4S)-2-(5-(2-methoxyquinolin-3-yl)-1H-imidazol-2-yl)-4-(methyl(tetrahydrofuran-3-yl)amino)piperidin-1-yl)ethan-1-one], the EC50 was below 100 nM.

For the compound `COc1ccc2nc(C(F)(F)F)n(CC(=O)N3CC[C@H](N(C)Cc4nccs4)C[C@H]3c3ncc(-c4cc5ccccc5nc4OC)[nH]3)c2c1` [2-(6-methoxy-2-(trifluoromethyl)-1H-benzo[d]imidazol-1-yl)-1-((2S,4S)-2-(5-(2-methoxyquinolin-3-yl)-1H-imidazol-2-yl)-4-(methyl(thiazol-2-ylmethyl)amino)piperidin-1-yl)ethan-1-one], the EC50 is below 100 nM.

For `COc1ccc2nc(C(F)(F)F)n(CC(=O)N3CC[C@H](NC4COC4)C[C@H]3c3ncc(-c4cc5ccccc5nc4OC)[nH]3)c2c1` [2-(6-methoxy-2-(trifluoromethyl)-1H-benzo[d]imidazol-1-yl)-1-((2S,4S)-2-(5-(2-methoxyquinolin-3-yl)-1H-imidazol-2-yl)-4-(oxetan-3-ylamino)piperidin-1-yl)ethan-1-one], the EC50 was below 100 nM.

On to `COc1ccc2nc(C(F)(F)F)n(CC(=O)N3CC[C@H](N4CCCC4)C[C@H]3c3ncc(-c4cc5ccccc5nc4OC)[nH]3)c2c1` [2-(6-methoxy-2-(trifluoromethyl)-1H-benzo[d]imidazol-1-yl)-1-((2S,4S)-2-(5-(2-methoxyquinolin-3-yl)-1H-imidazol-2-yl)-4-(pyrrolidin-1-yl)piperidin-1-yl)ethan-1-one], for which the EC50 was below 100 nM.

For `COc1ccc2nc(C(F)(F)F)n(CC(=O)N3CC[C@H](N4CCOCC4)C[C@H]3c3ncc(-c4cc5ccccc5nc4OC)[nH]3)c2c1` [2-(6-methoxy-2-(trifluoromethyl)-1H-benzo[d]imidazol-1-yl)-1-((2S,4S)-2-(5-(2-methoxyquinolin-3-yl)-1H-imidazol-2-yl)-4-morpholinopiperidin-1-yl)ethan-1-one], the EC50 was below 100 nM.

For `COc1ccc2nc(C(F)(F)F)n(CC(=O)N3CC[C@H](NC4CC(OC)C4)C[C@H]3c3ncc(-c4cc5ccccc5nc4OC)[nH]3)c2c1` (stereo partly drawn) [2-(6-methoxy-2-(trifluoromethyl)-1H-benzo[d]imidazol-1-yl)-1-((2S,4S)-4-((3-methoxycyclobutyl)amino)-2-(5-(2-methoxyquinolin-3-yl)-1H-imidazol-2-yl)piperidin-1-yl)ethan-1-one], the EC50 was below 100 nM.

In the case of `COc1ccc2nc(C(F)(F)F)n(CC(=O)N3C[C@H](NC4CCOC4)CC[C@H]3c3ncc(-c4cc5ccccc5nc4OC)[nH]3)c2c1` (stereo partly drawn) [2-(6-methoxy-2-(trifluoromethyl)-1H-benzo[d]imidazol-1-yl)-1-((2S,5R)-2-(5-(2-methoxyquinolin-3-yl)-1H-imidazol-2-yl)-5-((tetrahydrofuran-3-yl)amino)piperidin-1-yl)ethan-1-one], the EC50 is below 100 nM.

`COc1ccc2nc(C)n(CC(=O)N3CCN(Cc4ccn(C)n4)CCC3c3ncc(-c4cc5ccccc5nc4OC)[nH]3)c2c1` (centres unmarked) [2-(6-methoxy-2-methyl-1H-benzo[d]imidazol-1-yl)-1-(7-(5-(2-methoxyquinolin-3-yl)-1H-imidazol-2-yl)-4-((1-methyl-1H-pyrazol-3-yl)methyl)-1,4-diazepan-1-yl)ethan-1-one]: the EC50 is below 100 nM.

As to `COc1ccc2nc(C)n(CC(=O)N3CCN(Cc4nccs4)CCC3c3ncc(-c4cc5ccccc5nc4OC)[nH]3)c2c1` (centres unmarked) [2-(6-methoxy-2-methyl-1H-benzo[d]imidazol-1-yl)-1-(7-(5-(2-methoxyquinolin-3-yl)-1H-imidazol-2-yl)-4-(thiazol-2-ylmethyl)-1,4-diazepan-1-yl)ethan-1-one], the EC50 is below 100 nM.

As to `COc1ccc2nc(C)n(CC(=O)N3CCN(CC4CCOC4)C[C@H]3c3ncc(-c4cc5ccccc5nc4OC)[nH]3)c2c1` (stereo partly drawn) [2-(6-methoxy-2-methyl-1H-benzo[d]imidazol-1-yl)-1-((2S)-2-(5-(2-methoxyquinolin-3-yl)-1H-imidazol-2-yl)-4-((tetrahydrofuran-3-yl)methyl)piperazin-1-yl)ethan-1-one], the 50% effective concentration (EC50) is below 100 nM.

In the case of `COc1ccc2nc(C)n(CC(=O)N3CCN(CC4CCOC4)C[C@H]3c3ncc(/C=C/c4ccccc4)[nH]3)c2c1` (stereo partly drawn) [2-(6-methoxy-2-methyl-1H-benzo[d]imidazol-1-yl)-1-((2S)-2-(5-((E)-styryl)-1H-imidazol-2-yl)-4-((tetrahydrofuran-3-yl)methyl)piperazin-1-yl)ethan-1-one], the EC50 fell in the range of 1010 to 5000 nM.

In the case of `COc1ccc2nc(C)n(CC(=O)N3CCN(CC4CCOC4)C[C@H]3c3ncc(C#Cc4ccccn4)[nH]3)c2c1` (stereo partly drawn) [2-(6-methoxy-2-methyl-1H-benzo[d]imidazol-1-yl)-1-((2S)-2-(5-(pyridin-2-ylethynyl)-1H-imidazol-2-yl)-4-((tetrahydrofuran-3-yl)methyl)piperazin-1-yl)ethan-1-one], the EC50 lay in the range of 1010 to 5000 nM.

Consider `COc1ccc2nc(C)n(CC(=O)N3CC[C@H](N4CCOCC4)C[C@H]3c3ncc(-c4cc5ccccc5nc4OC)[nH]3)c2c1` [2-(6-methoxy-2-methyl-1H-benzo[d]imidazol-1-yl)-1-((2S,4S)-2-(5-(2-methoxyquinolin-3-yl)-1H-imidazol-2-yl)-4-morpholinopiperidin-1-yl)ethan-1-one], for which the 50% effective concentration (EC50) is 100 to 500 nM.

On to `COc1ccc2cc(C)n(CC(=O)N3CCN(Cc4ccn(C)n4)CCC3c3ncc(-c4cc5ccccc5nc4OC)[nH]3)c2c1` (centres unmarked) [2-(6-methoxy-2-methyl-1H-indol-1-yl)-1-(7-(5-(2-methoxyquinolin-3-yl)-1H-imidazol-2-yl)-4-((1-methyl-1H-pyrazol-3-yl)methyl)-1,4-diazepan-1-yl)ethan-1-one], for which the EC50 was below 100 nM.
